# According to ChEMBL document CHEMBL1687787, “Emergence and Distribution of Plasmids Bearing the blaOXA-51-like gene with an upstream ISAba1 in carbapenem-resistant Acinetobacter baumannii isolates in Taiwan” (2010):
# The source made the active and inactive calls. The rule behind the calls is not given here.
# Key:
# Acinetobacter baumannii [1] = assay: Antimicrobial activity against Acinetobacter baumannii clinical isolate harboring chromosomally encoded ISAba1-blaOXA-51-like gene with fxsA upstream sequence by agar dilution method in presence of Tazobactam; format: functional, organism-based
# Acinetobacter baumannii [2] = assay: Antimicrobial activity against Acinetobacter baumannii clinical isolate harboring plasmid encoded ISAba1-blaOXA-51-like gene with nuc upstream sequence by agar dilution method in presence of Tazobactam; format: functional, organism-based
# Acinetobacter baumannii [3] = assay: Antimicrobial activity against Acinetobacter baumannii ATCC 15151 by agar dilution method; format: functional
# Acinetobacter baumannii [4] = assay: Antimicrobial activity against Acinetobacter baumannii ATCC 15151 transformed with plasmid harboring ISAba1-blaOXA-82 by agar dilution method; format: functional
# Acinetobacter baumannii [5] = assay: Antimicrobial activity against Acinetobacter baumannii F-type isolate by agar dilution method; format: functional
# Acinetobacter baumannii [6] = assay: Antimicrobial activity against Acinetobacter baumannii F-type isolate transformed with plasmid harboring ISAba1-blaOXA-82 by agar dilution method
# Acinetobacter baumannii [7] = assay: Antimicrobial activity against Acinetobacter baumannii ATCC 15151 transformed with shuttle vector carrying beta-lactamase OXA-82 by agar dilution method; format: functional
Compound,Activity (Acinetobacter baumannii [1]),Activity (Acinetobacter baumannii [2]),MIC (Acinetobacter baumannii [3]) [µg/mL],MIC (Acinetobacter baumannii [4]) [µg/mL],MIC (Acinetobacter baumannii [5]) [µg/mL],MIC (Acinetobacter baumannii [6]) [µg/mL],MIC (Acinetobacter baumannii [7]) [µg/mL]
CCN1CCN(C(=O)N[C@@H](C(=O)N[C@@H]2C(=O)N3[C@@H]2SC(C)(C)[C@@H]3C(=O)O)c2ccccc2)C(=O)C1=O,inactive,inactive,,,,,
C[C@@H](O)[C@H]1C(=O)N2C(C(=O)O)=C(SCCNC=N)C[C@H]12 [IMIPENEM ANHYDROUS],,,0.5,32,4,64,2
